Results: US20230293521A1, “METHODS FOR SCREENING NOVEL CORONAVIRUS ANTIVIRALS AND METHODS OF USING ANTIVIRALS FOR THE TREATMENT OF CORONAVIRUS INFECTIONS” (priority 2020, published 2023)
Read-outs that look alike come from different tables or passages of the source.

System: SARS-CoV-2
Assay: Impedance-based (Maestro Z resistance/TEER) assay of SARS-CoV-2 cytopathic effect in Vero E6 monolayers
Assay type: cell-based
Settings: for inhibitory activity against SARS-CoV-2 (percent inhibition relative to DMSO control): Vero E6, serial half-log dilutions, MOI 0.01, 48 hours; for IC90: Vero E6, MOI 0.01, normalized resistance at 48 hpi; for IC50: Vero E6, pre-treated 1 hour, MOI 0.01, normalized resistance at 48 hpi
[1] = Severe acute respiratory syndrome coronavirus 2, Vero C1008
[2] = Severe acute respiratory syndrome coronavirus 2, Vero C1008, non-toxic doses, read-out: estimated IC50

In the case of `CCCCCCCCCCC[C@@H](C[C@@H]1OC(=O)[C@H]1CCCCCC)OC(=O)[C@H](CC(C)C)NC=O` [Orlistat], the “completeness of inhibition of viral cytopathic effects” value (with 500 µM, Vero E6) is reported as “complete inhibition was not achieved”.
In the case of `CS(=O)(=O)O.O=C([C@@H]1CCCN(c2ccc3[nH]c(C4(n5cc(Cl)cn5)CC4)nc3n2)C1)N1CCCC1` [PF06424439], the “inhibitory activity against SARS-CoV-2 (percent inhibition relative to DMSO control)” value is reported as “Neither compound displayed any inhibitory activity”.
With `Nc1ncc(-c2ccnc(Nc3ccncc3)n2)c(CC2CC2)n1` [PIK-III] the IC90 [1] was 1810 nM and the IC50 [2] was < 600 nM.
With `CCC(CC)COC(=O)[C@H](C)N[P@](=O)(OC[C@H]1O[C@@](C#N)(c2ccc3c(N)ncnn23)[C@H](O)[C@@H]1O)Oc1ccccc1` [Remdesivir] the IC50 (Severe acute respiratory syndrome coronavirus 2, Vero C1008, read-out: 50% inhibitory concentration (IC50)) was 1540 nM.
For `CC1(C)Oc2ncnc(N)c2N=C1c1ccc([C@H]2CC[C@H](CC(=O)O)CC2)cc1` [T863], the “inhibitory activity against SARS-CoV-2 (percent inhibition relative to DMSO control)” value was “Neither compound displayed any inhibitory activity”.
`CCC/C=C/C/C=C/C=C/C=N/NN=O` [Triacsin C] showed an IC50 (read-out: 50% inhibitory concentration (IC50)) of ~20000 nM.
In the case of `CC(C)(O)CNc1ncc(-c2ccnc(Nc3ccncc3)n2)c(CC2CC2)n1` [VPS34-IN1], the IC90 [1] is reported as 2520 nM and the IC50 [2] is reported as < 600 nM.
